Assay results: PubChem BioAssay AID330 (DTP/NCI, 2004)
Where “and” joins values, the source holds several entries; their conditions need not be identical. Equal entries are not always repeated. Inconclusive results and toxic doses are left out. Square brackets hold non-standard residues; d marks the D form. Peptide text beside a SMILES is read from it. * marks the point of attachment. ξ: configuration not given here. Nphe = O=C(O)CNCc1ccccc1; ξL = CC(C)CC(N)C(=O)O; Ms = CS(=O)(=O)*

System: P388 leukemia ip, CD2F1 mice, survival T/C
Assay: NCI In Vivo Anticancer Drug Screen. Data for tumor model P388 Leukemia (intraperitoneal) in CD2F1 (CDF1) mice
Details: endpoint: median survival time, higher = longer survival
How it was run: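 Mice carrying the transplanted tumor received test compound or vehicle. Survival was recorded in each group, and the value is the treated-group measurement divided by that of the vehicle-treated control group.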

[1] = dose: 50.0 mg/kg/injection, schedule: Q01DX009 (ip), vehicle: Klucel (hydroxypropylcellulose) (HPC)
[2] = dose: 100.0 mg/kg/injection, schedule: Q01DX009 (ip), vehicle: Klucel (hydroxypropylcellulose) (HPC)
[3] = dose: 200.0 mg/kg/injection, schedule: Q01DX009 (ip), vehicle: Klucel (hydroxypropylcellulose) (HPC)
[4] = dose: 60.0 mg/kg/injection, schedule: Q01DX005 (ip), vehicle: saline with Tween-80
[5] = dose: 120.0 mg/kg/injection, schedule: Q01DX005 (ip), vehicle: saline with Tween-80
[6] = dose: 50.0 mg/kg/injection, schedule: Q01DX009 (ip), vehicle: saline
[7] = dose: 50.0 mg/kg/injection, schedule: Q01DX009 (ip), vehicle: suspension in saline
[8] = dose: 100.0 mg/kg/injection, schedule: Q01DX009 (ip), vehicle: suspension in saline
[9] = dose: 200.0 mg/kg/injection, schedule: Q01DX009 (ip), vehicle: suspension in saline
[10] = dose: 400.0 mg/kg/injection, schedule: Q01DX009 (ip), vehicle: suspension in saline
[11] = dose: 25.0 mg/kg/injection, schedule: Q01DX009 (ip), vehicle: Klucel (hydroxypropylcellulose) (HPC)
[12] = dose: 12.5 mg/kg/injection, schedule: Q01DX009 (ip), vehicle: saline with Tween-80
[13] = dose: 25.0 mg/kg/injection, schedule: Q01DX009 (ip), vehicle: saline with Tween-80
[14] = dose: 50.0 mg/kg/injection, schedule: Q01DX009 (ip), vehicle: saline with Tween-80
[15] = dose: 100.0 mg/kg/injection, schedule: Q04DX003 (ip), vehicle: saline with Tween-80
[16] = dose: 200.0 mg/kg/injection, schedule: Q01DX009 (ip), vehicle: saline with Tween-80
[17] = dose: 200.0 mg/kg/injection, schedule: Q04DX003 (ip), vehicle: saline with Tween-80
[18] = dose: 400.0 mg/kg/injection, schedule: Q04DX003 (ip), vehicle: saline with Tween-80
[19] = dose: 240.0 mg/kg/injection, schedule: Q01DX005 (ip), vehicle: saline with Tween-80
[20] = dose: 100.0 mg/kg/injection, schedule: Q01DX009 (ip), vehicle: saline with Tween-80

COc1ccc(C2=CC(OO)(C(C)(C)C)C(=O)C(C(C)(C)C)=C2)cc1.Oc1ccccc1C=NCCC[N-]CCCN=Cc1ccccc1O.[Co] (stereo unspecified)
T/C [1]: 101 % of control
T/C [2]: 101 % of control
T/C [3]: 100 % of control

O=S(c1ccccc1)c1c(Cl)c(Cl)nc(Cl)c1Cl (stereo unspecified)
T/C (dose: 22.0 mg/kg/injection, schedule: Q01DX009 (ip), vehicle: saline with Tween-80): 100 % of control and 113 % of control
T/C (dose: 33.0 mg/kg/injection, schedule: Q01DX009 (ip), vehicle: saline with Tween-80): 109 % of control

CC(C)CC(NC(=O)CN(Cc1ccccc1)S(C)(=O)=O)C(=O)O (stereo unspecified) (Ms-[Nphe]-[ξL]-OH)
T/C (dose: 12.5 mg/kg/injection, schedule: Q01DX009 (ip), vehicle: other): 100 % of control
T/C (dose: 25.0 mg/kg/injection, schedule: Q01DX009 (ip), vehicle: other): 104 % of control
T/C (dose: 50.0 mg/kg/injection, schedule: Q01DX009 (ip), vehicle: other): 114 % of control
T/C (dose: 100.0 mg/kg/injection, schedule: Q01DX009 (ip), vehicle: other): 104 % of control
T/C (dose: 200.0 mg/kg/injection, schedule: Q01DX009 (ip), vehicle: other): 100 % of control

C=CC12COC(=O)C(=C)C1C1OC(=O)C(=C)C1CC2O (stereo unspecified)
T/C (dose: 0.75 mg/kg/injection, schedule: Q01DX009 (ip), vehicle: saline): 120 % of control
T/C (dose: 1.5 mg/kg/injection, schedule: Q01DX009 (ip), vehicle: saline): 123 % of control
T/C (dose: 3.0 mg/kg/injection, schedule: Q01DX009 (ip), vehicle: saline): 118 % of control
T/C (dose: 6.0 mg/kg/injection, schedule: Q01DX009 (ip), vehicle: saline): 120 % of control

CCOC(=O)c1cc2c(ccc3ccccc32)[nH]1
T/C [4]: 97 % of control
T/C [5]: 89 % of control

C=CCN(CC=C)Sc1cccc([N+](=O)[O-])c1
T/C [6]: 109 % of control
T/C (dose: 100.0 mg/kg/injection, schedule: Q01DX009 (ip), vehicle: saline): 117 % of control

NN1C(=O)c2ccc3c4c(ccc(c24)C1=O)CC3
T/C [7]: 91 % of control
T/C [8]: 102 % of control
T/C [9]: 88 % of control
T/C [10]: 99 % of control

COc1ccc2c(c1OC)C1NCCc3cc4c(cc3C1(OC)C2=O)OCO4 (stereo unspecified)
T/C (dose: 25.0 mg/kg/injection, schedule: Q01DX005 (ip), vehicle: distilled water + Tween-80 + alcohol): 109 % of control
T/C (dose: 50.0 mg/kg/injection, schedule: Q01DX005 (ip), vehicle: distilled water + Tween-80 + alcohol): 104 % of control
T/C (dose: 100.0 mg/kg/injection, schedule: Q01DX005 (ip), vehicle: distilled water + Tween-80 + alcohol): 107 % of control
T/C (dose: 200.0 mg/kg/injection, schedule: Q01DX005 (ip), vehicle: distilled water + Tween-80 + alcohol): 103 % of control

c1ccc(Nc2nnnn2-c2ccccc2)cc1
T/C (dose: 25.0 mg/kg/injection, schedule: Q01DX005 (ip), vehicle: saline with Tween-80): 100 % of control
T/C (dose: 50.0 mg/kg/injection, schedule: Q01DX005 (ip), vehicle: saline with Tween-80): 100 % of control
T/C (dose: 100.0 mg/kg/injection, schedule: Q01DX005 (ip), vehicle: saline with Tween-80): 104 % of control

C=C1CCC(OC(C)=O)C2(C)C(OC(C)=O)CC3OC3(C)C2C(OC(C)=O)C2C(C)C(=O)OC2C1Cl (stereo unspecified)
T/C [11]: 99 % of control
T/C [1]: 97 % of control
T/C [2]: 96 % of control
T/C [3]: 93 % of control

C=C1C(=O)C23CC1CCC2C12COC(OC(=O)CCCCCCCCCCCCCCC)C1C(C)(C)C(O)CC2OC3=O (stereo unspecified)
T/C (dose: 7.5 mg/kg/injection, schedule: Q01DX009 (ip), vehicle: saline with Tween-80): 96 % of control
T/C (dose: 15.0 mg/kg/injection, schedule: Q01DX009 (ip), vehicle: saline with Tween-80): 99 % of control
T/C (dose: 30.0 mg/kg/injection, schedule: Q01DX009 (ip), vehicle: saline with Tween-80): 97 % of control
T/C (dose: 60.0 mg/kg/injection, schedule: Q01DX009 (ip), vehicle: saline with Tween-80): 100 % of control

CC1/C(=N/O)C(=O)c2ccccc21 (stereo unspecified)
T/C [12]: 100 % of control
T/C [13]: 95 % of control
T/C [14]: 100 % of control

CC1=CCC(=O)O1
T/C [7]: 100 % of control
T/C [8]: 99 % of control and 88 % of control
T/C [9]: 101 % of control and 87 % of control
T/C [10]: 98 % of control and 101 % of control

C[N+]1(C2CCCCC2c2cccc(O)c2)CCCC1 (stereo unspecified)
T/C (dose: 0.39 mg/kg/injection, schedule: Q01DX009 (ip), vehicle: saline): 98 % of control
T/C (dose: 0.79 mg/kg/injection, schedule: Q01DX009 (ip), vehicle: saline): 104 % of control
T/C (dose: 1.56 mg/kg/injection, schedule: Q01DX009 (ip), vehicle: saline): 98 % of control

ClC1(c2ccccc2)c2ccc(Br)cc2-c2cc(Br)ccc21
T/C (dose: 65.0 mg/kg/injection, schedule: Q01DX009 (ip), vehicle: Klucel (hydroxypropylcellulose) (HPC)): 109 % of control
T/C [15]: 118 % of control
T/C [16]: 109 % of control
T/C [17]: 122 % of control
T/C (dose: 400.0 mg/kg/injection, schedule: Q01DX009 (ip), vehicle: saline with Tween-80): 113 % of control
T/C [18]: 118 % of control

CSC(=S)n1nc(-c2cccs2)c(N=Nc2ccc([N+](=O)[O-])cc2)c1C(F)(F)F
T/C [4]: 94 % of control
T/C [5]: 88 % of control
T/C [19]: 97 % of control

O=S(=O)(c1ccc(NC(=S)NCc2cccnc2)cc1)N1CCCCC1
T/C [1]: 92 % of control
T/C [2]: 93 % of control
T/C [3]: 95 % of control

O=C1CCCCCCCCCCCCCCCO1
T/C (dose: 6.25 mg/kg/injection, schedule: Q01DX009 (ip), vehicle: Klucel (hydroxypropylcellulose) (HPC)): 103 % of control
T/C (dose: 12.5 mg/kg/injection, schedule: Q01DX009 (ip), vehicle: Klucel (hydroxypropylcellulose) (HPC)): 98 % of control and 115 % of control
T/C [11]: 104 % of control and 97 % of control
T/C [1]: 100 % of control and 120 % of control and 91 % of control
T/C [2]: 109 % of control
T/C [3]: 111 % of control
T/C (dose: 400.0 mg/kg/injection, schedule: Q01DX009 (ip), vehicle: Klucel (hydroxypropylcellulose) (HPC)): 109 % of control

CC(O)CNCCNc1ccc(NCCNCC(C)O)c2c1C(=O)c1c(O)ccc(O)c1C2=O (stereo unspecified)
T/C (dose: 0.5 mg/kg/injection, schedule: Q01DX009 (ip), vehicle: acid diluted with saline): 165 % of control
T/C (dose: 1.0 mg/kg/injection, schedule: Q01DX009 (ip), vehicle: acid diluted with saline): 150 % of control
T/C (dose: 2.0 mg/kg/injection, schedule: Q01DX009 (ip), vehicle: acid diluted with saline): 200 % of control
T/C (dose: 4.0 mg/kg/injection, schedule: Q01DX009 (ip), vehicle: acid diluted with saline): 234 % of control
T/C (dose: 8.0 mg/kg/injection, schedule: Q01DX009 (ip), vehicle: acid diluted with saline): 202 % of control

Nc1nc(Cl)c2nc(Cl)n(C3OC(CO)C(O)C3O)c2n1 (stereo unspecified)
T/C (dose: 50.0 mg/kg/injection, schedule: Q04DX003 (ip), vehicle: saline with Tween-80): 100 % of control
T/C [15]: 100 % of control
T/C [17]: 100 % of control
T/C [18]: 91 % of control

CCCCN(CCCC)CC(O)c1cc(-c2ccc(C(F)(F)F)cc2)nc(-c2ccc(C(F)(F)F)cc2)c1 (stereo unspecified)
T/C (dose: 6.25 mg/kg/injection, schedule: Q01DX009 (ip), vehicle: saline with Tween-80): 109 % of control
T/C [12]: 109 % of control
T/C [13]: 100 % of control

CCN(CC)C(C)C(=O)Nc1c(C)cccc1Cl (stereo unspecified)
T/C (dose: 12.5 mg/kg/injection, schedule: Q01DX009 (ip), vehicle: saline): 100 % of control
T/C (dose: 25.0 mg/kg/injection, schedule: Q01DX009 (ip), vehicle: saline): 90 % of control
T/C [6]: 100 % of control

O=C(/C=C/c1ccccc1)Cc1nc2nnc(NC(=O)Nc3ccc(Cl)cc3)n2[nH]c1=O
T/C [4]: 99 % of control
T/C [5]: 94 % of control
T/C [19]: 102 % of control

CCCn1cnc2c(=S)nc[nH]c21
T/C [13]: 86 % of control
T/C [14]: 90 % of control
T/C [20]: 109 % of control

COC(=O)C1=C(C(=O)OC)CC1
T/C [14]: 109 % of control
T/C [20]: 109 % of control
T/C [16]: 117 % of control

COC(=O)Nc1nc2ccc(C3c4c(n[nH]c4C)CC(C)(O)C3C(C)=O)cc2[nH]1 (stereo unspecified)
T/C [4]: 98 % of control
T/C [5]: 101 % of control
T/C [19]: 101 % of control

Nc1ncc2c(n1)-c1ccccc1OC2
T/C [4]: 92 % of control
T/C [5]: 103 % of control
T/C [19]: 95 % of control
